Results on 13 compounds are retold here after US10570117B2, “Phenylimidazole compound” (Otsuka Pharmaceutical Factory, Inc., priority 2015, dated 2020).

The subject of data set [1] is lipoprotein lipase (LPL) gene. Kind of data set: LPL mRNA elevating action (RT-PCR quantification of LPL mRNA in C2Cl2 cells). In kind it is cell-based, mouse. Conditions: Mus musculus, 24 h, compound 10 μM, ratio relative to the amount of LPL mRNA in cells with DMSO only, read-out: Rate of increase in LPL mRNA. In a few lines:
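Read-out is LPL mRNA relative to vehicle (DMSO = 1), measured by reverse transcription and 20-cycle real-time PCR. Cells were the mouse striated-muscle line C2Cl2, treated 24 h with 10 μM compound in DMEM containing 10% FBS.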

Data set [2] in a line: Solubility in gastric juice or intestinal juice model fluid (precipitation method using DMSO). Conditions: room temperature. In kind it is physicochemical. In a few lines: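 Dissolved amount (μg/mL) quantified by UV of filtrate versus pre-made calibration curves. Precipitation approach: DMSO solutions spiked into pH 1.2 (JP 1st fluid) or pH 6.8 (JP 2nd fluid) medium, shaken at room temperature for 24 h before insolubles were filtered off.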

The mark [3] stands for this setting: pH 1.2, simulated gastric fluid, kinetic from dmso stock, 1st fluid for Disintegration Test of Japanese Pharmacopoeia (pH: 1.2), read-out: Solubility (μg/mL) 1st fluid.
[4] abbreviates: pH 6.8, kinetic from dmso stock, 2nd fluid for Disintegration Test of Japanese Pharmacopoeia (pH: 6.8), read-out: Solubility (μg/mL) 2nd fluid.

Values after ≈ are worked out from the molar mass of the structure shown. Read-outs that look alike come from different tables or passages of the source.

As to `COc1cc(O)ccc1-c1c[nH]c(-c2ccc(F)nc2)n1` [Example 109, 4-[2-(6-fluoropyridin-3-yl)-1H-imidazol-5-yl]-3-methoxyphenol], the melting point is 249 to 251 °C (dec.). In data set [1], the fold induction at 10 µM turned out to be 1.76. Moreover, in data set [2] (setting [3]), the solubility at 24 h was more than 57 µg/mL. Further, the solubility at 24 h in data set [2] (setting [4]) was 40 µg/mL (≈ 140 µM).
Regarding `COc1cc(OCc2cccnc2C(F)(F)F)ccc1-c1cnc(-c2ccc(F)nc2)[nH]1` [Example 112], the melting point was in the range of 187 to 190 °C. Further, the fold induction at 10 µM in data set [1] is 2.39. Also, the solubility at 24 h in data set [2] (setting [3]) was 12 µg/mL (≈ 27 µM). The solubility at 24 h in data set [2] (setting [4]) is 2.1 µg/mL (≈ 4.73 µM).
Turning to `COc1cc(OCc2ncc(C)cc2C)ccc1-c1c[nH]c(-c2ccc(F)nc2)n1` [Example 118], the melting point is 219 to 223 °C (dec.). Further, the fold induction at 10 µM in data set [1] worked out at 2.91. Besides, the solubility at 24 h in data set [2] (setting [3]) is 80.2 µg/mL (≈ 198 µM). Also, in data set [2] (setting [4]), the solubility at 24 h came to 2.1 µg/mL (≈ 5.19 µM).
`COc1cc(OCc2ncccc2C(F)(F)F)ccc1-c1c[nH]c(-c2ccc(F)nc2)n1` [Example 121] registered a melting point of 201 to 202 °C. For the same compound, the fold induction at 10 µM in data set [1] turned out to be 3.38. Moreover, the solubility at 24 h in data set [2] (setting [3]) was more than 89 µg/mL. The solubility at 24 h in data set [2] (setting [4]) turned out to be 1.8 µg/mL (≈ 4.05 µM).
In turn, `COc1cc(OCc2cnc(C)cn2)ccc1-c1c[nH]c(-c2ccc(F)nc2)n1` [Example 122] returned a melting point of 167 to 170 °C. Moreover, in data set [1], the fold induction at 10 µM was determined as 1.7. The solubility at 24 h in data set [2] (setting [3]) was 71.8 µg/mL (≈ 183 µM). Also, the solubility at 24 h in data set [2] (setting [4]) turned out to be 2.9 µg/mL (≈ 7.41 µM).
For `COc1cc(OCc2ccc(C(F)(F)F)cn2)ccc1-c1c[nH]c(-c2ccc(F)nc2)n1` [Example 124] the same measures were 141 to 144 °C, 2.28, 18.7 µg/mL (≈ 42.1 µM) and less than 1.6 µg/mL.
Regarding `COc1cc(OCc2cnccc2C(F)(F)F)ccc1-c1cnc(-c2ccc(F)nc2)[nH]1` [Example 131], the melting point was 178 to 180 °C. For the same compound, the fold induction at 10 µM in data set [1] stood at 3.66. Besides, in data set [2] (setting [3]), the solubility at 24 h was 87.4 µg/mL (≈ 197 µM). Moreover, the solubility at 24 h in data set [2] (setting [4]) is less than 0.3 µg/mL.
`COc1cc(OCc2ncc(C(F)(F)F)cc2Cl)ccc1-c1cnc(-c2ccc(F)nc2)[nH]1` [Example 132]: the melting point fell in the range of 185 to 187 °C. Also, in data set [1], the fold induction at 10 µM is 2.77. Moreover, the solubility at 24 h in data set [2] (setting [3]) is 5.9 µg/mL (≈ 12.3 µM). The solubility at 24 h in data set [2] (setting [4]) is less than 0.3 µg/mL.
For the compound `COc1cc(OCc2ncc(C(F)(F)F)cc2Br)ccc1-c1cnc(-c2ccc(F)nc2)[nH]1` [Example 133], the melting point lay within 153 to 170 °C. Further, the fold induction at 10 µM in data set [1] came to 2.43. In addition, the solubility at 24 h in data set [2] (setting [3]) is 29.3 µg/mL (≈ 56 µM). In data set [2] (setting [4]), the solubility at 24 h worked out at 2 µg/mL (≈ 3.82 µM).
For `COc1cc(OCc2ccnc(C(F)(F)F)c2)ccc1-c1cnc(-c2ccc(F)nc2)[nH]1` [Example 135] the same measures were 212 to 244 °C, 3.14, 6.8 µg/mL (≈ 15.3 µM) and 2.2 µg/mL (≈ 4.95 µM).
For `COc1cc(OCc2ccncc2C(F)(F)F)ccc1-c1cnc(-c2ccc(F)nc2)[nH]1` [Example 136] the same measures were 181 to 192 °C, 2.71, more than 89 µg/mL and 2.2 µg/mL (≈ 4.95 µM).
In turn, `COc1cc(OCc2ncc(Cl)cc2F)ccc1-c1cnc(-c2ccc(F)nc2)[nH]1` [Example 141] yielded a melting point of 174 to 176 °C. In addition, the fold induction at 10 µM in data set [1] was found to be 2.33. The solubility at 24 h in data set [2] (setting [3]) is 10.1 µg/mL (≈ 23.6 µM). Further, the solubility at 24 h in data set [2] (setting [4]) is less than 0.3 µg/mL.
For `COc1cc(OCc2ccc(C(F)(F)F)nc2)ccc1-c1nc(-c2ccc(Cl)nc2)n(C)c1C` [Example 152, 2-chloro-5-[4-[2-methoxy-4-((6-(trifluoromethyl)pyridin-3-yl)methoxy)phenyl]-1,5-dimethyl-1H-imidazol-2-yl]pyridine] the same measures were 185 to 188 °C, 3.3, more than 98 µg/mL and less than 0.3 µg/mL.
